We go through twelve compounds from ChEMBL document CHEMBL4130567, “Discovery of Thiophene[3,2-d]pyrimidine Derivatives as Potent HIV-1 NNRTIs Targeting the Tolerant Region I of NNIBP” (ACS Med Chem Lett, 2017).

Structures are written as SMILES.

The subject of data set [1] is Human immunodeficiency virus 1. Description: Antiviral activity against wild type HIV1 3B infected in human MT4 cells assessed as inhibition of virus-induced cytopathic effect after 5 days by MTT assay. Particulars: Human immunodeficiency virus 1, 3B, MT4, 120 h. The data set is classed as functional, organism-based. On the technique in general: Cytopathic effects are the visible damage that an infection or toxin causes in cultured cells.

Data set [2] has as its system Human immunodeficiency virus 2. Description: Antiviral activity against HIV2 ROD infected in human MT4 cells assessed as inhibition of virus-induced cytopathic effect after 5 days by MTT assay. It is filed as functional, organism-based. Particulars: Human immunodeficiency virus 2, ISOLATE ROD, MT4, 120 h.
Data set [3] can be described thus: Cytotoxicity against human MT4 cells assessed as reduction in cell viability after 5 days by MTT assay. It is filed as cell-based. In general terms: Formazan colour is commonly taken as a measure of viable cells.
The nature of data set [4]: Selectivity index, ratio of CC50 for human MT4 cells to EC50 for wild type HIV1 3B infected in human MT4 cells. It is filed as toxicity, cell-based. As to conditions: MT4 cells infected with wild type HIV1 3B, read-out: Ratio CC50/EC50.
Data set [5] concerns Human immunodeficiency virus 1. The data set is described as follows: Antiviral activity against HIV1 3B harboring reverse transcriptase L100I mutant infected in human MT4 cells assessed as inhibition of virus-induced cytopathic effect after 5 days by MTT assay. The data set is classed as functional, organism-based. Particulars: Human immunodeficiency virus 1, 3B, MT4, 120 h.

Data set [6] has as its system Human immunodeficiency virus 1. The data set is described as follows: Antiviral activity against HIV1 3B harboring reverse transcriptase K103N mutant infected in human MT4 cells assessed as inhibition of virus-induced cytopathic effect after 5 days by MTT assay. The data set is classed as functional, organism-based. As to conditions: Human immunodeficiency virus 1, 3B, MT4, 120 h.

The test system of data set [7] is Human immunodeficiency virus 1. The data set is described as follows: Antiviral activity against HIV1 3B harboring reverse transcriptase Y181C mutant infected in human MT4 cells assessed as inhibition of virus-induced cytopathic effect after 5 days by MTT assay. It is filed as functional, organism-based. As to conditions: Human immunodeficiency virus 1, 3B, MT4, 120 h.

Data set [8] relates to Human immunodeficiency virus 1. The data set is described as follows: Antiviral activity against HIV1 3B harboring reverse transcriptase Y188L mutant infected in human MT4 cells assessed as inhibition of virus-induced cytopathic effect after 5 days by MTT assay. The data set is classed as functional, organism-based. As to conditions: Human immunodeficiency virus 1, 3B, MT4, 120 h.

In data set [9] the test system is Human immunodeficiency virus 1. Description: Antiviral activity against HIV1 3B harboring reverse transcriptase E138K mutant infected in human MT4 cells assessed as inhibition of virus-induced cytopathic effect after 5 days by MTT assay. The data set is classed as functional, organism-based. As to conditions: Human immunodeficiency virus 1, 3B, MT4, 120 h.
Data set [10] deals with Human immunodeficiency virus 1. Description: Antiviral activity against HIV1 3B harboring reverse transcriptase F227L/V106A double mutant infected in human MT4 cells assessed as inhibition of virus-induced cytopathic effect after 5 days by MTT assay. The data set is classed as functional, organism-based. Particulars: Human immunodeficiency virus 1, 3B, MT4, 120 h.
Data set [11] relates to Human immunodeficiency virus 1. Description: Antiviral activity against HIV1 3B harboring reverse transcriptase RES056 double mutant infected in human MT4 cells assessed as inhibition of virus-induced cytopathic effect after 5 days by MTT assay. As to conditions: Human immunodeficiency virus 1, 3B, MT4, 120 h. It is filed as functional, organism-based.
Data set [12] concerns the target Human immunodeficiency virus type 1 reverse transcriptase (Human immunodeficiency virus 1, UniProt Q72547). Description: Inhibition of recombinant wild type HIV1 reverse transcriptase using DIG-labeled dUTP/biotin-labeled dUTP and dTTP as template and viral nucleotides assessed as decrease in biotin-dUTP incorporation after 1 hr by ELISA. (An ELISA detects its analyte on a solid surface through an enzyme-linked reagent.)

Regarding `CC(=O)Nc1ccc(S(=O)(=O)NC2CCC(Nc3nc(Oc4c(C)cc(C#N)cc4C)c4sccc4n3)CC2)cc1` (stereo not given), the concentration giving a half-maximal response (EC50) (as a rule, the midpoint of the concentration-response curve) was 10 nM in data set [1]; above 3730 nM in [2]; 562 nM in data set [5]; 32 nM in [6]; 513 nM in [7]; 903 nM in data set [8]. In addition, the 50% effective concentration (EC50) was 35 nM in data set [9], 1210 nM in data set [10] and above 3730 nM in [11]. In addition, the CC50 (usually the concentration at which the toxic effect on the cells reaches its halfway point) at 120 h in data set [3] was 3730 nM. Also, in data set [4], the selectivity ratio is 340. Besides, the IC50 – broadly, the concentration that inhibits the measured activity by half – in data set [12] is 1040 nM.

Regarding `Cc1cc(C#N)cc(C)c1Oc1nc(NC2CCC(NC(=O)c3ccc(C#N)cc3)CC2)nc2ccsc12` (stereo not given), the EC50 was 138 nM in data set [1]; above 2620 nM in data set [2]; above 2620 nM in data set [5]; at least 1440 nM in data set [6]; above 2620 nM in data set [7]; above 2620 nM in data set [8]. The values for the concentration giving a half-maximal response (EC50) in data set [9], in data set [10] and in data set [11] were 736 nM, above 2620 nM and above 2620 nM, respectively. Moreover, in data set [3], the 50% cytotoxic concentration (CC50) at 120 h was determined as 2620 nM. Further, the selectivity ratio in [4] came out at 19.

As to `Cc1cc(C#N)cc(C)c1Oc1nc(NC2CCC(NS(=O)(=O)c3ccc(Br)cc3)CC2)nc2ccsc12` (stereo not given), the EC50 is 25 nM in [1]; above 5860 nM in data set [2]; 841 nM in data set [5]; 131 nM in data set [6]; 852 nM in data set [7]; 2250 nM in [8]. Also, the EC50 in [9] was 126 nM; in data set [10], at least 6140 nM; in data set [11], 5870 nM. In addition, in [3], the CC50 at 120 h amounted to 5860 nM. Moreover, in data set [4], the selectivity ratio was found to be 231.

With `Cc1cc(C#N)cc(C)c1Oc1nc(NC2CCC(NC(=O)c3ccc(Br)cc3)CC2)nc2ccsc12` (stereo not given), the EC50 is 30 nM in [1]; above 2850 nM in [2]; above 2850 nM in data set [5]; 519 nM in [6]; above 2850 nM in data set [7]; above 2850 nM in data set [8]. Moreover, the results for the EC50 in [9], in data set [10] and in data set [11] were 370 nM, above 2850 nM and above 2850 nM, respectively. The CC50 at 120 h in data set [3] was 2850 nM. Further, in data set [4], the selectivity ratio worked out at 93.

With `Cc1cc(C#N)cc(C)c1Oc1nc(NC2CCC(NS(=O)(=O)c3cccc(C(F)(F)F)c3)CC2)nc2ccsc12` (stereo not given), the EC50 in data set [1] is 86 nM; in [2] it was above 6680 nM; in data set [5], at least 4090 nM; in data set [6], 569 nM; in [7], at least 4340 nM; in data set [8], above 6690 nM. Besides, the results for the EC50 in data set [9], in [10] and in data set [11] were 642 nM, above 6690 nM and above 6690 nM, respectively. The CC50 at 120 h in [3] was 6680 nM. The selectivity ratio in [4] stood at 78.

In the case of `Cc1cc(C#N)cc(C)c1Oc1nc(NC2CCC(NS(=O)(=O)c3ccc(F)cc3)CC2)nc2ccsc12` (stereo not given), the half-maximal effective concentration (EC50) in [1] was 9.2 nM; in data set [2], above 3530 nM; in data set [5], 410 nM; in data set [6] it was 103 nM; in data set [7] it was 472 nM; in [8], above 3520 nM. Further, the EC50 in [9] was 76 nM; in data set [10], above 3520 nM; in data set [11] it was above 3520 nM. For the same compound, the CC50 at 120 h in data set [3] worked out at 3530 nM. In data set [4], the selectivity ratio stood at 383.

`Cc1cc(C#N)cc(C)c1Oc1nc(NC2CCC(NC(=O)c3ccccc3)CC2)nc2ccsc12` (stereo not given): the EC50 was 13 nM in data set [1]; above 3930 nM in [2]; above 3920 nM in data set [5]; 273 nM in data set [6]; at least 1510 nM in data set [7]; above 3920 nM in data set [8]. Besides, the EC50 in data set [9] is 183 nM; in data set [10] it was above 3920 nM; in data set [11], above 3920 nM. For the same compound, in data set [3], the CC50 at 120 h was determined as 3930 nM. In addition, the selectivity ratio in data set [4] stood at 294.

Turning to `Cc1cc(C#N)cc(C)c1Oc1nc(NC2CCC(NC(=O)c3cccc(C(F)(F)F)c3)CC2)nc2ccsc12` (stereo not given), the EC50 in [1] was 196 nM; in data set [2] it was above 3240 nM; in [5], above 3240 nM; in [6], above 3240 nM; in data set [7], above 3240 nM; in data set [8], above 3240 nM. Besides, the figures for the EC50 in [9], in [10] and in data set [11] were at least 1330 nM, above 3240 nM and above 3240 nM, respectively. For the same compound, in data set [3], the CC50 at 120 h was 3240 nM. For the same compound, the selectivity ratio in [4] was determined as 17.

With `Cc1cc(C#N)cc(C)c1Oc1nc(NC2CCC(NS(=O)(=O)c3ccc(C#N)cc3)CC2)nc2ccsc12` (stereo not given), the concentration for a half-maximal effect (EC50) in [1] was 7.1 nM; in data set [2], above 9290 nM; in data set [5], 424 nM; in data set [6], 70 nM; in data set [7], 428 nM; in [8], 675 nM. Besides, the EC50 is 45 nM in [9], 3580 nM in [10] and above 9280 nM in data set [11]. Further, in data set [3], the cytotoxic concentration (CC50) at 120 h turned out to be 9290 nM. The selectivity ratio in [4] worked out at 1310. Moreover, in data set [12], the IC50 was 1140 nM.

Take `Cc1cc(C#N)cc(C)c1Oc1nc(NC2CCC(NC(=O)c3ccc(F)cc3)CC2)nc2ccsc12` (stereo not given): the concentration for a half-maximal effect (EC50) in [1] was 26 nM; in data set [2], above 3180 nM; in data set [5], above 3180 nM; in [6], 478 nM; in data set [7], above 3180 nM; in data set [8], above 3180 nM. Besides, the figures for the EC50 in [9], in data set [10] and in [11] were 230 nM, above 3180 nM and above 3180 nM, respectively. Further, the cytotoxic concentration (CC50) at 120 h in data set [3] amounted to 3180 nM. The selectivity ratio in [4] was 121.

As to `Cc1cc(C#N)cc(C)c1Oc1nc(Nc2ccc(C#N)cc2)nc(N)c1Br` [ETRAVIRINE], the EC50 is 2.8 nM in [1]; 9.7 nM in data set [5]; 3.4 nM in data set [6]; 19 nM in data set [7]; 20 nM in [8]; 23 nM in [10]. The EC50 in data set [11] amounted to 26 nM. The CC50 at 120 h in data set [3] stood at 2180 nM.

In the case of `Cc1cn([C@H]2C[C@H](N=[N+]=[N-])[C@@H](CO)O2)c(=O)[nH]c1=O` [ZIDOVUDINE], the EC50 in data set [2] was found to be 8 nM; in data set [5], 5.4 nM; in [6], 7.8 nM; in data set [7], 6.3 nM; in data set [8], 8 nM; in data set [9], 17 nM. Also, the EC50 in [10] was found to be 5.3 nM; in data set [11], 11 nM. Further, in data set [3], the CC50 at 120 h was above 7480 nM. The selectivity ratio in data set [4] is above 664.
